Biological target: T1, mouse SGLT4 (Mus musculus, UniProt Q8VDT1)
T1 construct: expressed in transfected cells; host or cells: HEK293T
T1 sequence (Q8VDT1 1-685): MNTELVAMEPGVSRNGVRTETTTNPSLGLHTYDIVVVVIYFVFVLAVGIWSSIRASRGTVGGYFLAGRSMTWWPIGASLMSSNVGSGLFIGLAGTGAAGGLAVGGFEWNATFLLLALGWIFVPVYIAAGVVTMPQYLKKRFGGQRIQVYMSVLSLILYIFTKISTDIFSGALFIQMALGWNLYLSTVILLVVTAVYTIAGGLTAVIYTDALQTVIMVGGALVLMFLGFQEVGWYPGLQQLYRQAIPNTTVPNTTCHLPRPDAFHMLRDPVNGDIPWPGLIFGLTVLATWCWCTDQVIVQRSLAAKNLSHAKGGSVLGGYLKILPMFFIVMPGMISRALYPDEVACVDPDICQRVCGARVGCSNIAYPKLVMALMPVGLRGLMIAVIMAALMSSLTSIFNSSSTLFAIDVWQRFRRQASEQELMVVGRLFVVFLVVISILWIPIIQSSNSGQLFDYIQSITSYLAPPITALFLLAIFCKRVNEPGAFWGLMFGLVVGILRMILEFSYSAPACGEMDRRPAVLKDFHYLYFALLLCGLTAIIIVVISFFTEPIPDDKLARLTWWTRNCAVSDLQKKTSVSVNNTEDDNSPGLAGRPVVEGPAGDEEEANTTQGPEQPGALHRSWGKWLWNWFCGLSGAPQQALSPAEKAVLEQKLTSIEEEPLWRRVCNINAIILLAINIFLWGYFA
Assay: Radioactive uptake assay (saturation kinetics) in HEK293T cells expressing mouse SGLT4
Type: cell-based
Description: For a typical transporter experiment we proceeded as follows. […] To minimize cell loss during the various washing steps in the radioactive uptake experiments, the wells where the cells were seeded were previously coated with poly- D-lysine, which improved their adhesion to the plastic surface of the wells. For this, each well of the 24-well plates was treated with 200 µl of a 0.01% poly-L-lysine solution for 10 min, washed 3 times with 1 ml of sterilized water and left to dry for 2 h. Only then could the 24-well plates be seeded with the appropriate cell lines and cultured overnight at 37 °C in 5% CO2.
On day two, the radioactive uptake assay could be performed. The cell culture media was removed by aspiration and cells were incubated for 20 min at 37 °C and 5% CO2 with a basal medium (10 mM HEPES, pH 7.4, 1 mM CaCl2, 1 mM MgCl2, 2 mM KCl) containing 140 mM choline chloride to deplete intracellular […] ions. This was subsequently replaced with the uptake medium (basal medium + 140 mM NaCl, 25 μM cytochalasin B, 1 mg/ml BSA) containing either radioactive U-[^14C]-mannose (15,000 cpm/well) or 2-[^3H]-1,5-AG (30,000 cpm/well) and respectively, non-radioactive mannose or 1,5-AG, at the required concentration in the experiment. Importantly, when measuring the transport of mannose, the uptake media also contained 0.5 mM glucose. This resulted from the need to reduce the background transport of mannose in control HEK293T cells in order to optimize the transport assay for this sugar in our model cell lines. Consequently, after testing various inhibitors (Supplementary Fig. 1), 0.5 mM glucose + 25 µM cytochalasin B appeared as the best combination to decrease efficiently the endogenous transport of mannose in control cells without affecting the transport of mannose in model cell lines overexpressing SGLT4 and SGLT5. […]
Once the uptake medium was added to the cells, the plates were incubated at 37 °C in 5% CO2 during the required time. […] In each experiment, the transport activities were calculated after subtracting a “blank” value, corresponding to the radioactivity in the appropriate control cells (HEK293T cells that were stably or transiently transfected with one of the parent plasmids pEF6/MycHisA, pEF6HisB, pUB82 or pUB83 with no inserted cDNA) that were analyzed in parallel. […]
Supplementary Fig. 4: Transport activities for 1,5-anhydroglucitol and mannose of recombinant mouse SGLT4 and SGLT5 isoforms measured in HEK293T cells.
Transport was measured in 24 well plates with 0.6x10^6 cells during 30 mins at 37°C in 5% CO2 in the presence of the indicated concentrations of 2-[1H+3H]-1,5-AG for both mSGLT4 (A) and mSGLT5 (B) and U-[12C+14C]-mannose (C) for mSGLT4. […]

Row | SMILES | mSGLT4 Vmax (30 min, Supplementary Fig. 4) [pmol/min/100 000 cells] | Km (30 min, Supplementary Fig. 4, read-out: mSGLT4 Km) [mM] | Km of mouse SGLT4 lower for mannose than for 1,5-AG (mannose versus 1,5-AG) [fold]
1 | OC[C@H]1OC[C@H](O)[C@@H](O)[C@@H]1O [1,5-AG, 1,5-anhydroglucitol] | 152 | > 5 | 
2 | OC[C@H]1OC(O)[C@@H](O)[C@@H](O)[C@@H]1O (stereo partly shown) [Mannose, mannose] | 29 |  | 25
